Test results: PubChem BioAssay AID588667 (The Scripps Research Institute Molecular Screening Center, 2011)

Molecular target: Epidermal growth factor receptor (Homo sapiens) (UniProt P00533)
Assay: decrease of EGFR abundance in colorectal cells – SW620 cells, chemiluminescent western blot, powder samples, counter-screen for KLF5 inhibitor project, late-stage follow-up (AID 588667)
Conditions: 24 h, at 10 µM; for inhibition: stronger effect = higher value; for signed fold change of EGFR band vs DMSO (negative = fold decrease; more negative = more active): measured here: EGFR band fold change vs DMSO

Chain of Epidermal growth factor receptor (Homo sapiens) (P00533 whole entry, looked up): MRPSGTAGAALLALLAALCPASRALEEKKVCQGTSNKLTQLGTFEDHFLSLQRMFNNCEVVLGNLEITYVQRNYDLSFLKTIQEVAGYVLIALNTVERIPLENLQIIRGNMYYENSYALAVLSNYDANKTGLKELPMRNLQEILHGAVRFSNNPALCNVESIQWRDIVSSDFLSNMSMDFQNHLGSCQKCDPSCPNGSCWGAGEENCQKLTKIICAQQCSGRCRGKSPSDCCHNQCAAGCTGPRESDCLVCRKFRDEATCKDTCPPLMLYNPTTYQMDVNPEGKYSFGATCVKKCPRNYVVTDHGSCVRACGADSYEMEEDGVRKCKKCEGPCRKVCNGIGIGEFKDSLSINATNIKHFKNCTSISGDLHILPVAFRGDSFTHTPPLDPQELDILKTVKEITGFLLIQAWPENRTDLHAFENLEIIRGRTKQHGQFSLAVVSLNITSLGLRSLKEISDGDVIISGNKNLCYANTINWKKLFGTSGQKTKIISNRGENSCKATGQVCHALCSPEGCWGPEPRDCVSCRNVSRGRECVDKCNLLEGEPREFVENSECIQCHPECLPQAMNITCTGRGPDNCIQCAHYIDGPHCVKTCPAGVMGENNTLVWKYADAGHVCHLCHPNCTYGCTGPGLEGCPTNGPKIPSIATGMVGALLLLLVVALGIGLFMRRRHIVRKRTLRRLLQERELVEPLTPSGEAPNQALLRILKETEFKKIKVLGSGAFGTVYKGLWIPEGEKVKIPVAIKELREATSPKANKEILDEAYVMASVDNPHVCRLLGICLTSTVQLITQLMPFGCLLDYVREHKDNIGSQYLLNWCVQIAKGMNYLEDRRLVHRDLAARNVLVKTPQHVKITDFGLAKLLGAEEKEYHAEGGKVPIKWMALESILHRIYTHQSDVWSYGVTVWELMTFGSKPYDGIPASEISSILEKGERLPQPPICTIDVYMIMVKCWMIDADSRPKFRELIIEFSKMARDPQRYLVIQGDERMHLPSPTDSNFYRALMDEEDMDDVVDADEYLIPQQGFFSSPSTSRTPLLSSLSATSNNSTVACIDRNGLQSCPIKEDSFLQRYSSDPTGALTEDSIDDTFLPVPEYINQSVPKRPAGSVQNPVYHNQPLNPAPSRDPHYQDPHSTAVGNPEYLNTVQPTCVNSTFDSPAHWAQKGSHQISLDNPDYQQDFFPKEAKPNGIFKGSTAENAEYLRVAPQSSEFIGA

Row | Structure (SMILES) | inhibition | signed fold change of EGFR band vs DMSO (negative = fold decrease; more negative = more active)
1 | CN(C(=O)CNC(=O)/C=C/c1cccc(Cl)c1)C1CCS(=O)(=O)C1 (stereo unspecified) | 31.7% | -1.46
2 | CN(C(=O)COC(=O)/C=C/c1cccc([N+](=O)[O-])c1)C1CCS(=O)(=O)C1 (stereo unspecified) | 53.3% | -2.14
3 | CN(C(=O)CNC(=O)/C=C/c1cccc(Cl)c1)C1CCS(=O)(=O)CC1 | 87.1% | -7.78
